Experimental data published in US6537803B1, “Amino acid transporters and uses” (Oregon Health Sciences University, priority 1993, dated 2003).
Where two headings read alike, the source gives them in different places.

Legend:
Format in all cases: cell-based
human EAAT1 = molecular target: T1, human EAAT1 (Homo sapiens, UniProt P43003); test: inhibition of [3H]-L-glutamate uptake in COS-7 cells expressing EAAT1; conditions: for inhibition of glutamate uptake (in words), EAAT1: COS cell culture
T1 construct: expressed in transfected cells; host or cells: COS-7 cells, pCMV5 construct, DEAE-dextran transient transfection
T1 sequence (P43003 whole entry): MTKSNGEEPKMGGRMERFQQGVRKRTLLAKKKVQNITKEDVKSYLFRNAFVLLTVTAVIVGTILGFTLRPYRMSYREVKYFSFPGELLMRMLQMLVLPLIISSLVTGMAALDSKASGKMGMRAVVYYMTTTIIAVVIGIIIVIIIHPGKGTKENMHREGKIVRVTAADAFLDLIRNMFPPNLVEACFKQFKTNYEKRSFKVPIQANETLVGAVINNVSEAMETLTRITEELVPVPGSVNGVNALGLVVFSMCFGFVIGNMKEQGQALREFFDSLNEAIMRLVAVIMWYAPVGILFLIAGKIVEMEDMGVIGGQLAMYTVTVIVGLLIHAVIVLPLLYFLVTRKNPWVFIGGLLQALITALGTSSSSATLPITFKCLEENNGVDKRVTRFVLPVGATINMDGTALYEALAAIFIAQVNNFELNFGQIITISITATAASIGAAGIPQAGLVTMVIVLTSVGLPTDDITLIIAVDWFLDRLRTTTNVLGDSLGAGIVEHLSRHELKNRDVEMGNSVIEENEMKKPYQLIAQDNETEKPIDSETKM
Text: (§1) DNA fragments comprising the coding sequences of the novel glutamate transporter genes of the invention were excised from the POTV constructs described in Example 3 and subcloned into the mammalian expression plasmid pCMV5 (Anderson et al., 1989, J. Biol. Chem. 264: 8222-8229). These mammalian expression constructs were used for transient expression assays of glutamate transporter protein function after transfection of each of these constructs into COS-7 cells (Gluzman, 1981, Cell 23: 175-182).
(§2) Each of the pCMV5 constructs corresponding to EAAT1, EAAT2 and EAAT3 were introduced into COS-7 cells by DEAE-dextran facilitated transfection (see Sambrook et al., ibid.). Two day following transfection, the transfected cells were washed three times in phosphate-buffered saline (PBS) and then incubated with a mixture of radiolabeled amino acid ([^3H]-L-glutamate or [^3H]-D-aspartate; Dupont-NEN) and non-radiolabeled amino acid for 10 min. After incubation, the cells were washed three times with ice-cold PBS, solubilized with a solution of 0.1% sodium dodecyl sulfate (SDS) and the amount of radioactivity associated with the cells determined using standard liquid scintillation counting methods.
(§3) COS-7 cell cultures transformed with pCMVS-human glutamate transporter constructs as described in Example 4 were used to characterize the pharmacological properties of each of these transporter proteins relative to a variety of known glutamate transporter inhibitors. These assays were performed essentially as described in Example 4, with the exception that varying amounts of each of a number of known inhibitor compounds were included in the incubations.
(§4) In these experiments, uptake of 1 μM of […] was determined in the presence of the indicated amounts of each of the inhibitors.

human EAAT3 = molecular target: T2, human EAAT3 (Homo sapiens, UniProt P43005); test: inhibition of [3H]-L-glutamate uptake in COS-7 cells expressing EAAT3; conditions: for inhibition of glutamate uptake (in words), EAAT3: COS cell culture
T2 construct: isolation of Clone GT11B containing a full-length open reading frame encoding EAAT3; expressed in transfected cells; host or cells: COS-7 cells, pCMV5 construct, DEAE-dextran transient transfection
T2 sequence (P43005 1-524): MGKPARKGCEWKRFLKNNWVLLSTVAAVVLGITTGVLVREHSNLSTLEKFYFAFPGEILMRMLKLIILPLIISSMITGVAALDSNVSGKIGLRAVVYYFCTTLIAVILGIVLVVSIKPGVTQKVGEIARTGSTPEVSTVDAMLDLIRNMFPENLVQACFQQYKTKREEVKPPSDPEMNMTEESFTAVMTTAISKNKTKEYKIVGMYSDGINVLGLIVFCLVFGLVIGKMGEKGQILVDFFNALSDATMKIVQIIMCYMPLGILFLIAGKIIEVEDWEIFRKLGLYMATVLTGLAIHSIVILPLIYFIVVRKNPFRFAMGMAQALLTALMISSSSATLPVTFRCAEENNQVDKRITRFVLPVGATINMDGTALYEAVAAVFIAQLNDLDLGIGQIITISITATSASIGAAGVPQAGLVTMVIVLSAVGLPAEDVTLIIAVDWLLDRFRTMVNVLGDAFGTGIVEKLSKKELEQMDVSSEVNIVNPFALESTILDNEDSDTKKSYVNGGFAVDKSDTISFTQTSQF
Text: as §1, §2, §3, §4

human EAAT2 = molecular target: T3, human EAAT2 (Homo sapiens, UniProt P43004); test: inhibition of [3H]-L-glutamate uptake in COS-7 cells expressing EAAT2; conditions: for inhibition of glutamate uptake (in words), EAAT2: COS cell culture
T3 construct: expressed in transfected cells; host or cells: COS-7 cells, pCMV5 construct, DEAE-dextran transient transfection
T3 sequence (P43004 whole entry): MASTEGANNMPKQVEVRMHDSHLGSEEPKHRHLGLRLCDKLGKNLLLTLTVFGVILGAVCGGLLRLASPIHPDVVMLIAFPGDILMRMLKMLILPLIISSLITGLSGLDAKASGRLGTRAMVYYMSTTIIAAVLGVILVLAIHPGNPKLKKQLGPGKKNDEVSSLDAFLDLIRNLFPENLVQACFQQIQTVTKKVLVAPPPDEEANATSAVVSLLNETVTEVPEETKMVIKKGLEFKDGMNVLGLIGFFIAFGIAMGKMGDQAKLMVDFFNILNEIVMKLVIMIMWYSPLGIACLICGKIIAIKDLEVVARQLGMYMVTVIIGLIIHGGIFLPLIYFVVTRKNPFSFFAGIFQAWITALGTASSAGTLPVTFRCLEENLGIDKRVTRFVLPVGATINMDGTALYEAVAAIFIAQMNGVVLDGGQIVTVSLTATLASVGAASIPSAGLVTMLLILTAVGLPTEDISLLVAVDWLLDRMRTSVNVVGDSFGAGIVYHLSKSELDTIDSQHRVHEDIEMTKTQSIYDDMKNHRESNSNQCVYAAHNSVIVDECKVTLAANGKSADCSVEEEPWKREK
Text: as §1, §2, §3, §4

[1] = molecular target: T4, human ASCT1 neutral amino acid transporter (Homo sapiens, UniProt P43007); test: amino acid-induced inward current in voltage-clamped ASCT1-injected Xenopus oocytes; conditions: for effect on membrane current of ASCT1-injected oocytes: much higher concentrations (about 1 mM); for Imax (maximal current): L-stereoisomer, current normalized to the maximum response obtained with L-alanine, mean ± standard error
T4 construct: expressed in transfected cells; host or cells: Xenopus laevis oocytes injected with in vitro transcribed RNA (pOTV vector)
T4 sequence (P43007 1-532): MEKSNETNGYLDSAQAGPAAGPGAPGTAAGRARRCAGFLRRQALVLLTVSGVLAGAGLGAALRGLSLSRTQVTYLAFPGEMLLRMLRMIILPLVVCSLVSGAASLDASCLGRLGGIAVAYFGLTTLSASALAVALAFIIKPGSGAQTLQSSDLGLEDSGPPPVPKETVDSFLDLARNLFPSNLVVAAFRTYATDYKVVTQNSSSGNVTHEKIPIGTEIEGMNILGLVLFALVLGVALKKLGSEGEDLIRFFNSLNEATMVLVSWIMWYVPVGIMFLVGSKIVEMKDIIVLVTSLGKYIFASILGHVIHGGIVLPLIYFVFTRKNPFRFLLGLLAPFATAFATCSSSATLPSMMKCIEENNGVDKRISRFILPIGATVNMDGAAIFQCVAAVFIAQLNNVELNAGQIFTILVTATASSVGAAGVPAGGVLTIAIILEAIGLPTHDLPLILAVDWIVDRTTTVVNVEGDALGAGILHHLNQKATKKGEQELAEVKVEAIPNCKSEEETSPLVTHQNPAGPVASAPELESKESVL
Text: Following the PCR, the product of the amplification reaction was purified using standard techniques (Saiki et al., 1988, Science 239: 487-491). The DNA then digested with the restriction enzymes KpnI and XbaI and then cloned into the polylinker of an oocyte transcription vector (POTV; see Wang el al., 1991, Nature 352: 729-731) that had been digested with KpnI and XbaI. Synthetic RNA was then transcribed in vitro from this clone using the method of Kavanaugh et al. (1992, J. Biol. Chem. 267: 22007-22009) employing bacteriophage T7 RNA polymerase (New England Biolabs, Beverly, Mass.). 20-50 nL of ASCT1 RNA (at a concentration of about 400 μg/mL) was injected into defolliculated stage V-VI Xenopus oocytes excised from female Xenopus laevis anesthetized by immersion in 3-aminobenzoic acid for 60 min. Excised oocytes were treated with collagenase II (Sigma Chemical Co., St. Louis, Mo.) in calcium-free Barth's saline solution [comprising 88 mM NaCl, 1 mM KCl, 2.4 mM NaHCO3, 0.82 mM MgSO4, 7.5 mM Tris-HCl (pH 7.6), 50 U/mL Nystatin (Sigma) and 0.1 mg/mL gentamycin (Sigma)] for 60 min., and then incubated overnight at 15° C. in 50% Leibowitz's L-15 media (Grand Island Biological Co. (GIBCO), Long Island, N.Y.). After overnight incubation the oocytes were mechanically defolliculated and then were injected with ASCT-1 RNA and incubated at 19° C. for 48 h (see Kim el al., 1991, Nature 352: 725-728 for further details of Xenopus oocyte preparation and microinjection).
Amino acid transport in such oocytes was assayed using [^3H] alanine, [^3H] serine or [^35S] cysteine (obtained from New England Nuclear, Boston, Mass.). Briefly, microinjected oocytes were […] at −60 mV using a Dagan TEV-200 clamp amplifier with an Axon Instruments (Foster City, Calif.) TL-1 A/D interface controlled by pCLAMP software (Axon Instruments) (see Kavanaugh et al., 1992, J. Biol. Chem. 267: 22007-22009 for a detailed review of this methodology) and continuously superfused with ND-96 buffer (consisting of 96 mM NaCl/2 mM KCl/1.8 mM CaCl2/1 mM MgCl2/5 mM HEPES, pH 7.5). For transport measurements, this solution was changed to a solution containing varying concentrations of the radiolabeled amino acids in ND-96 buffer.
More detailed analyses of ithe kinetics of amino acid influx were performed by least squares linear regression analysis of induced inward current ([I]) plotted as a function of substrate amino acid concentration ([S]), using the equation shown in the legend of Table II.

[2] = read-out: Ki, glutamate uptake inhibition constant, EAAT1
[3] = read-out: Ki, glutamate uptake inhibition constant, EAAT3
[4] = read-out: Ki, glutamate uptake inhibition constant, EAAT2
[5] = uptake of 1 μM [3H]-L-glutamate, [S] << Km, Ki does not differ significantly from measured IC50, read-out: Ki, glutamate uptake inhibition constant, EAAT2
[6] = uptake of 1 μM [3H]-L-glutamate, [S] << Km, Ki does not differ significantly from measured IC50, read-out: Ki, glutamate uptake inhibition constant, EAAT1
[7] = uptake of 1 μM [3H]-L-glutamate, [S] << Km, Ki does not differ significantly from measured IC50, read-out: Ki, glutamate uptake inhibition constant, EAAT3

## N[C@@H](COS(=O)(=O)O)C(=O)O [SOS, L-serine-O-sulfate]
Human EAAT1
  Ki: 0.107 ± 0.008 mM
Human EAAT3
  Ki: 0.15 ± 0.052 mM
Human EAAT2
  Ki: 1160 ± 275 µM

## N[C@@H](CS(=O)O)C(=O)O [L-cysteine sulfinic acid]
Human EAAT1; [2]
  Ki: 0.014 ± 0.007 mM
Human EAAT3; [3]
  Ki: 0.017 ± 0.002 mM
Human EAAT2; [4]
  Ki: 6 ± 1 µM

## O=C1CC[C@@H](C(=O)O)N1 [L-pyroglutamicacid]
Human EAAT1
  inhibition of glutamate uptake (in words), EAAT1: ineffective
Human EAAT3
  inhibition of glutamate uptake (in words), EAAT3: ineffective
Human EAAT2
  inhibition of glutamate uptake (in words), EAAT2: ineffective

## O=C(O)[C@H]1CN[C@H](C(=O)O)C1 [PDC, L-trans-pyrrolidine-2,4-dicarboxylate]
Human EAAT1; [2]
  Ki: 0.079 ± 0.007 mM
Human EAAT3; [3]
  Ki: 0.061 ± 0.014 mM
Human EAAT2; [4]
  Ki: 8 ± 2 µM

## C=C(C)[C@H]1CN[C@H](C(=O)O)[C@H]1CC(=O)O [KAI, kainate]
Human EAAT1; uptake of 1 μM [3H]-L-glutamate, bound given in mM, read-out: Ki, glutamate uptake inhibition constant, EAAT1
  Ki: > 1 mM
Human EAAT3; uptake of 1 μM [3H]-L-glutamate, bound given in mM, read-out: Ki, glutamate uptake inhibition constant, EAAT3
  Ki: > 1 mM
Human EAAT2; [5]
  Ki: 59 ± 18 µM

## CN[C@@H](C)C(=O)O [N-methylalanine]
[1]
  effect on membrane current of ASCT1-injected oocytes: had no effect

## N[C@@H](CSS(=O)(=O)O)C(=O)O [S-sulfo-L-cysteine]
Human EAAT1
  inhibition of glutamate uptake (in words), EAAT1: ineffective
Human EAAT3
  inhibition of glutamate uptake (in words), EAAT3: ineffective
Human EAAT2
  inhibition of glutamate uptake (in words), EAAT2: ineffective

## N[C@@H](Cn1oc(=O)[nH]c1=O)C(=O)O [quisqualate]
Human EAAT1
  inhibition of glutamate uptake (in words), EAAT1: ineffective
Human EAAT3
  inhibition of glutamate uptake (in words), EAAT3: ineffective
Human EAAT2
  inhibition of glutamate uptake (in words), EAAT2: ineffective

## N[C@H](C(=O)O)[C@H](O)C(=O)O [THA, L-threo-β-hydroxyaspartate]
Human EAAT1; [2]
  Ki: 0.032 ± 0.008 mM
Human EAAT3; [3]
  Ki: 0.025 ± 0.005 mM
Human EAAT2; [4]
  Ki: 19 ± 6 µM

## N[C@@H](CC(=O)NO)C(=O)O [L-aspartate-β-hydroxymate]
Human EAAT1; [2]
  Ki: 0.369 ± 0.07 mM
Human EAAT3; [3]
  Ki: 0.133 ± 0.034 mM
Human EAAT2; [4]
  Ki: 184 ± 27 µM

## NC1(C(=O)O)CC(C(=O)O)C1 (stereo not drawn) [cis-1-aminocyclobutane-1,3-dicarboxylate]
Human EAAT1
  inhibition of glutamate uptake (in words), EAAT1: ineffective
Human EAAT3
  inhibition of glutamate uptake (in words), EAAT3: ineffective
Human EAAT2
  inhibition of glutamate uptake (in words), EAAT2: ineffective

## CN[C@H](CC(=O)O)C(=O)O [N-methyl-D-aspartate]
Human EAAT1
  inhibition of glutamate uptake (in words), EAAT1: ineffective
Human EAAT3
  inhibition of glutamate uptake (in words), EAAT3: ineffective
Human EAAT2
  inhibition of glutamate uptake (in words), EAAT2: ineffective

## NC(CC(=O)O)CC(=O)O [β-glutamate]
Human EAAT1; [6]
  Ki: 0.297 ± 0.118 mM
Human EAAT3; [7]
  Ki: 0.307 ± 0.048 mM
Human EAAT2; [5]
  Ki: 156 ± 37 µM

## NCC(=O)O [glycine]
[1]
  effect on membrane current of ASCT1-injected oocytes: had no effect

## CC(C)[C@H](N)C(=O)O [Valine]
[1]
  Imax (maximal current): 0.6 ± 0.11

## NC(CCCC(=O)O)C(=O)O (stereo not drawn) [α-aminoadipate]
Human EAAT1
  inhibition of glutamate uptake (in words), EAAT1: only low potency
Human EAAT3
  inhibition of glutamate uptake (in words), EAAT3: only low potency
Human EAAT2
  inhibition of glutamate uptake (in words), EAAT2: only low potency

## CC(C)C[C@H](N)C(=O)O [leucine]
[1]
  effect on membrane current of ASCT1-injected oocytes: had no effect

## NC(=O)C[C@H](N)C(=O)O [asparagine]
[1]
  effect on membrane current of ASCT1-injected oocytes: had no effect

## C[C@@H](O)[C@H](N)C(=O)O [Threonine]
[1]
  Imax (maximal current): 1.4 ± 0.03

## N[C@@H](CS(=O)(=O)O)C(=O)O [L-cysteate]
Human EAAT1; [6]
  Ki: 0.01 ± 0.003 mM
Human EAAT3; [7]
  Ki: 0.019 ± 0.009 mM
Human EAAT2; [5]
  Ki: 10 ± 2 µM

## CSCC[C@H](N)C(=O)O [methionine]
[1]
  effect on membrane current of ASCT1-injected oocytes: had no effect

## O=C(O)[C@@H]1CCCN1 [proline]
[1]
  effect on membrane current of ASCT1-injected oocytes: had no effect

## N=C(N)NCCC[C@H](N)C(=O)O [arginine]
[1]
  effect on membrane current of ASCT1-injected oocytes: had no effect

## NCCCC[C@H](N)C(=O)O [L-lysine]
[1]
  effect on membrane current of ASCT1-injected oocytes: had no effect

## NC(=O)CC[C@H](N)C(=O)O [L-glutamine]
[1]
  effect on membrane current of ASCT1-injected oocytes: had no effect

## C[C@@H](N)C(=O)O [D-alanine]
[1]; stereospecificity
  response relative to the response produced by L-alanine: 12±3%
